Test results as given in ChEMBL document CHEMBL1201862, “PubChem BioAssay data set” (2004).
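Where inhibition never reached the appropriate level, the endpoint shown equals the highest concentration tested. Otherwise, values were interpolated linearly from a five-concentration, 48-hour dose response in 96-well plates. Abbreviation: GI50, concentration required for 50% inhibition of growth.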 Active and inactive are the calls of the source. No stated cut-off is given here; in the data, active = GI50 up to about 1.1 µM and inactive = higher.

Assays:
Assay in all cases: NCI anticancer screen, dose series, 48 h
BT-549 = test system: BT-549
CCRF-CEM = test system: CCRF-CEM
OVCAR-3 = test system: OVCAR-3
DU-145 = test system: DU-145
MDA-N = test system: MDA-N
A549 = test system: A549
SR = test system: SR
TK-10 = test system: TK-10
OVCAR-4 = test system: OVCAR-4
NCI-H522 = test system: NCI-H522
SF-295 = test system: SF-295
RPMI-8226 = test system: RPMI-8226
SK-MEL-28 = test system: SK-MEL-28
PC-3 = test system: PC-3
786-0 = test system: 786-0
KM12 = test system: KM12
SW-620 = test system: SW-620
SK-MEL-2 = test system: SK-MEL-2
HL-60 = test system: HL-60
UACC-257 = test system: UACC-257
MOLT-4 = test system: MOLT-4
OVCAR-8 = test system: OVCAR-8
SN12C = test system: SN12C
IGROV-1 = test system: IGROV-1
CAKI-1 = test system: CAKI-1
NCI-H226 = test system: NCI-H226
U-251 = test system: U-251
COLO 205 = test system: COLO 205
T47D = test system: T47D
LOX IMVI = test system: LOX IMVI
UO-31 = test system: UO-31
SK-MEL-5 = test system: SK-MEL-5
MCF7 = test system: MCF7
HCT-116 = test system: HCT-116
NCI/ADR-RES = test system: NCI/ADR-RES
RXF 393 = test system: RXF 393
NCI-H460 = test system: NCI-H460
HOP-92 = test system: HOP-92
SNB-75 = test system: SNB-75
SF-268 = test system: SF-268
MDA-MB-231 = test system: MDA-MB-231
M14 = test system: M14
Hs-578T = test system: Hs-578T
HCC 2998 = test system: HCC 2998
HCT-15 = test system: HCT-15
SNB-19 = test system: SNB-19
OVCAR-5 = test system: OVCAR-5
A498 = test system: A498
K562 = test system: K562
Malme-3M = test system: Malme-3M
EKVX = test system: EKVX
MDA-MB-435 = test system: MDA-MB-435
ACHN = test system: ACHN
SF-539 = test system: SF-539
UACC-62 = test system: UACC-62

For COC(=O)c1ccccc1/C=C1\Cc2ccc3ccccc3c2C1C (stereo not given), the GI50 (BT-549) was 51.8 µM (inactive), the GI50 (CCRF-CEM) was 45.8 µM (inactive) and the GI50 (OVCAR-3) was 25.6 µM (inactive). For the same molecule, the GI50 (DU-145) was > 100 µM (inactive), the GI50 (MDA-N) was 43.6 µM (inactive) and the GI50 (A549) was 51.3 µM (inactive). The GI50 (SR) was 32.7 µM (inactive), the GI50 (TK-10) was > 100 µM (inactive) and the GI50 (OVCAR-4) was 45.6 µM (inactive). For the same molecule, the GI50 (NCI-H522) was 16.6 µM (inactive), the GI50 (SF-295) was 70.8 µM (inactive) and the GI50 (RPMI-8226) was 37 µM (inactive). The GI50 (SK-MEL-28) was > 100 µM (inactive), the GI50 (PC-3) was 60.7 µM (inactive) and the GI50 (786-0) was 81.5 µM (inactive). For the same molecule, the GI50 (KM12) was 41.4 µM (inactive), the GI50 (SW-620) was 93.3 µM (inactive) and the GI50 (SK-MEL-2) was > 100 µM (inactive). For the same molecule, the GI50 (HL-60) was 24.1 µM (inactive), the GI50 (UACC-257) was 48.9 µM (inactive) and the GI50 (MOLT-4) was 27.2 µM (inactive). For the same molecule, the GI50 (OVCAR-8) was > 100 µM (inactive), the GI50 (SN12C) was 98.9 µM (inactive) and the GI50 (IGROV-1) was > 100 µM (inactive). The GI50 (CAKI-1) was > 100 µM (inactive), the GI50 (NCI-H226) was > 100 µM (inactive) and the GI50 (U-251) was > 100 µM (inactive). The GI50 (COLO 205) was 60.1 µM (inactive), the GI50 (T47D) was 17.4 µM (inactive) and the GI50 (LOX IMVI) was > 100 µM (inactive). For the same molecule, the GI50 (UO-31) was 42.1 µM (inactive), the GI50 (SK-MEL-5) was 20.9 µM (inactive) and the GI50 (MCF7) was 50.4 µM (inactive). For the same molecule, the GI50 (HCT-116) was 8.09 µM (inactive), the GI50 (NCI/ADR-RES) was 36 µM (inactive) and the GI50 (RXF 393) was 39.2 µM (inactive). For the same molecule, the GI50 (NCI-H460) was > 100 µM (inactive), the GI50 (HOP-92) was 67.9 µM (inactive) and the GI50 (SNB-75) was 72.4 µM (inactive). The GI50 (SF-268) was > 100 µM (inactive), the GI50 (MDA-MB-231) was > 100 µM (inactive) and the GI50 (M14) was 37.4 µM (inactive). For the same molecule, the GI50 (Hs-578T) was 34.6 µM (inactive), the GI50 (HCC 2998) was > 100 µM (inactive) and the GI50 (HCT-15) was 58.5 µM. The GI50 (SNB-19) was > 100 µM (inactive), the GI50 (OVCAR-5) was 13.2 µM (inactive) and the GI50 (A498) was > 100 µM (inactive). The GI50 (K562) was 37.6 µM (inactive), the GI50 (Malme-3M) was 53.7 µM (inactive) and the GI50 (EKVX) was 37.7 µM (inactive). For the same molecule, the GI50 (MDA-MB-435) was 45.7 µM (inactive), the GI50 (ACHN) was > 100 µM (inactive) and the GI50 (SF-539) was > 100 µM (inactive). For the same molecule, the GI50 (UACC-62) was 57 µM (inactive).
